Data: patent US20250352675A1, “CA-IX TARGETING FLUORESCENT PROBES” (BRACCO IMAGING S.P.A., priority 2022, published 2025)

How the values were obtained:
HT-29 tumor = assay: Ex vivo tumor-to-background ratio in excised HT-29 tumors; set-up: species or system mice; settings: 1 nmol/mouse, samples collected 24 hours after administration; tumor vs hind limb muscle
Protocol: The ex vivo biodistribution of the representative compounds 1, 2 and 3 and of the reference compound HF-1 (at 1 nmol/mouse) was evaluated in HT-29 excised tumors and tissues at the end of the in vivo OI sessions 24 hours post intravenous administration. At the end of the in vivo experiment, animals were euthanized by overdose of gaseous anesthesia followed by cervical dislocation. Tumor tissue, muscle, and other organs of interest were removed for ex vivo fluorescent signal measurements. The fluorescence signal intensity was measured by the IVIS Spectrum system. Regions of interest (ROIs) were drawn around each organ and tumor using the Living Image Software (PerkinElmer) and evaluating signal intensity in the tissues (expressed as Average Radiant Efficiency). The ratio between the fluorescence signal in the organs and tumor was then calculated to assess the contrast to hind limb muscle (representing the background).

HT-29 cells = assay: Receptor-mediated uptake: competition with 100x excess of acetazolamide in HT-29 cells; assay type: cell-based, human; settings: 1 μM, 2 hours at 37° C., relative to uptake without acetazolamide
Protocol: The HT-29 cells were used as in vitro model to assess the cell uptake of the CA-IX targeting compounds of the invention, more specifically whether cellular internalization of compounds occurred after targeting to cell-surface-expressed CA-IX. Cellular uptake was evaluated by flow cytometry. […] Treatment with unconjugated dyes were used to estimate non-specific CA-IX-independent cellular uptake. Cell incubation on ice was used to discriminate the cell-associated fluorescence deriving from internalized and cell-surface associated compounds (37° C.), from the one deriving from solely cell surface-bound compounds (on ice). Treatment of HT-29 cells, grown in 24-well plates, was performed by rinsing cells in DPBS and then by incubation with treatment solutions, for the indicated times and temperatures, in the dark. At the end of treatment, cells were rinsed 3 times with cold DPBS, and detached from the plate with StemPro® Accutase® Cell Dissociation Reagent, collected in 1.5 mL tubes after dilution in DPBS and centrifuged (5 minutes, 350 RCF, 4° C.). The supernatant was then discarded, and the cell pellet was resuspended in 300 μL of cold FACS buffer, or in a suitable volume in order to obtain no more than 1,000 recorded events per μL during FACS analysis. Samples were analyzed with the flow cytometer Accuri™ C6 (BD Biosciences) using the 640 nm excitation laser and the emission 780/60 nm filter. At least 15000 valid events were collected for each sample. At the end of analysis, each sample was plotted in histograms, being X the fluorescence intensity (FL4-A) in log scale and Y the counts. Usually, a gaussian distribution of the cell population was observed. The data retrieved were the mean fluorescence of each population, considered the fluorescence intensity value of the corresponding sample. Independent replicates were performed for each experimental condition. Normalized cell-associated fluorescence was calculated with the following formula: […]

[1] = Optical characterization (excitation/emission maxima, molar extinction coefficient); assay type: physicochemical
Protocol: A dual-beam UV-VIS spectrophotometer (Lambda 40, Perkin Elmer) was used to determine the absorbance (Abs) of the compounds of the invention. Emission/excitation (Em/Ex) spectra were carried out on a spectrofluorometer (FluoroLog-3 1IHR-320, Horiba Jobin Yvon) equipped with an F-3018 integrating sphere accessory. The measurements were performed using an excitation wavelength at maximum absorbance of different dyes, and the sample was excited with a 450W Xenon Light Source. Detection was performed by photomultiplier tubes (PMT-NIR) cooled detector or by TBX-04 detector. Dye solutions were carefully prepared to have an absorbance lower than 0.1 (optical densities) to minimize re-absorption phenomena.
The compounds of the invention were characterized in terms of their optical properties in vitro in aqueous medium (i.e., water/PBS pH 7.4) and in a clinical chemistry control serum (Seronorm, Sero S A), mimicking the chemical composition and optical properties of human serum. All solutions were freshly prepared. In particular, the compounds of the invention are characterized by absorption maxima comprised in the range from about 750 nm to 780 nm.
The excitation and emission maxima in PBS and Seronorm and the molar extinction coefficient (E) in water of representative compounds of formula (I) are shown in Table I in comparison with the known CA-IX targeting fluorescent probe named Hypoxyfluor-1 (HF-1, for instance disclosed in Bioconjugate Chem 2018, 29, 3320-3331). […] Moreover, the extinction coefficients were higher than […] for all compounds.

| Max Em ([1]; PBS pH 7.4) [nm] | Max Ex ([1]; PBS pH 7.4) [nm] | Max Em ([1]; Seronorm) [nm] | Max Ex ([1]; Seronorm) [nm] | SMILES | ex vivo TBR ± SD, HT-29 tumor (HT-29 tumor) | % uptake in presence of 100x excess of acetazolamide (HT-29 cells) [%] |
| --- | --- | --- | --- | --- | --- | --- |
| 783 | 752 | 791 | 768 | CC1(C)C(/C=C/C=C/C=C/C=C2/N(CCCCS(=O)(=O)O)c3ccc(C(=O)NC[C@H](O)[C@@H](O)[C@H](O)[C@H](O)CO)cc3C2(C)C)=[N+](CCCCS(=O)(=O)[O-])c2ccc(C(=O)NCCCCCCCC(=O)Nc3nnc(S(N)(=O)=O)s3)cc21 [Compound 1] | 16.4 ± 4.4 | 16.4 ± 1.9 |
| 784 | 754 | 788 | 768 | CC1(C)C(/C=C/C=C/C=C/C=C2/N(CCCCS(=O)(=O)O)c3ccc(S(=O)(=O)O)cc3C2(C)C)=[N+](CCCCS(=O)(=O)[O-])c2ccc(C(=O)NCCCCCCCC(=O)Nc3nnc(S(N)(=O)=O)s3)cc21 [Compound 2] | 15.2 ± 5.9 | 28.4 ± 2.2 |
| 802 | 776 | 810 | 792 | CC1(C)C(/C=C/C2=C(Oc3ccc(S(=O)(=O)O)cc3)C(=C/C=C3/N(CCCCS(=O)(=O)O)c4ccc(S(=O)(=O)O)cc4C3(C)C)/CCC2)=[N+](CCCCS(=O)(=O)[O-])c2ccc(C(=O)NCCCCCCCC(=O)Nc3nnc(S(N)(=O)=O)s3)cc21 [Compound 3] | 5.8 ± 2.2 | 18.1 ± 11.5 |
